The target in assay [1] is SHP2 (Homo sapiens (Human), UniProt Q06124). The assay is described as follows: SHP2 Biochemical Assay (DiFMUP conversion, pIRS1-activated). Summed up: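 Human SHP2 (10 pM) pre-incubated 30 min with compound and […] pIRS1 activating peptide, then 50 μM DiFMUP added; buffer 25 mM Bis-Tris propane pH 7.0, 150 mM NaCl, 5% DMSO. Fluorescence rate (ex 360/em 450 nm) over 30 min; IC50 by four-parameter fit, averaged across experiments.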

Assay [2] deals with pERK (phospho-p44/42 ERK) in HCC827 cells. The assay is described as follows: Cellular pERK Inhibition Assay, Method A (In-Cell Western). It counts as cell-based. The note with it: Homo sapiens. Put shortly: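 HCC827 cells in RPMI/10% FBS were treated with compounds in serum-free medium (0.2% DMSO final) at 37 °C for the indicated time, in quadruplicate. Fixed cells were immunostained for phospho-p44/42 ERK and read by infrared imaging. Blank-subtracted signal was expressed as % of DMSO control; IC50 from four-parameter logistic fit, averaged across experiments.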

[3] abbreviates: Table 19, head prints unit as "-M".
Where [4] appears, read: Table 19, head prints unit as "-M", read-out: pERK (IC50) Method A.

Where two headings read alike, the source gives them in different places. Where only a bound is given, the exact number is not on record here.

Chain of SHP2 (Q06124 whole entry): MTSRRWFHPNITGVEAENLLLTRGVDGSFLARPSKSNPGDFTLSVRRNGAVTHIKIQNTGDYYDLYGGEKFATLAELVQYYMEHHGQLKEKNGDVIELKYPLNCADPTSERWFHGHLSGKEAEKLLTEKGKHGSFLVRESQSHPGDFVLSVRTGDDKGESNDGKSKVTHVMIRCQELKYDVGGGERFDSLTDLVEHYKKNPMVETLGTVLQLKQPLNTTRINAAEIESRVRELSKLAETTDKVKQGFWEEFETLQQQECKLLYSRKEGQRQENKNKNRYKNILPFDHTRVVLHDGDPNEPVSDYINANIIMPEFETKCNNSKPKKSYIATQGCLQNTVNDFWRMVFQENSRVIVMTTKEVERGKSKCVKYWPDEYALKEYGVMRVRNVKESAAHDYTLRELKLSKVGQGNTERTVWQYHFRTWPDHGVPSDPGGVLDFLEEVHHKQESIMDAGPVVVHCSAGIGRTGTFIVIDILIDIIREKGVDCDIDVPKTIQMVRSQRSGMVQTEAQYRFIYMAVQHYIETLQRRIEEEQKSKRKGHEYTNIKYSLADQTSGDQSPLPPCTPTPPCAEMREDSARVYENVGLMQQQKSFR

For the compound `CN[C@H]1C[C@H]2CC[C@@H]1N2c1nc2[nH]cc(-c3ccc4nn(C)cc4c3Cl)c2c(=O)n1C` [Example 165, 5-(4-chloro-2-methyl-2H-indazol-5-yl)-3-methyl-2-((1S,2S,4R)-2-(methylamino)-7-azabicyclo[2.2.1]heptan-7-yl)-3,7-dihydro-4H-pyrrolo[2,3-d]pyrimidin-4-one], the IC50 in assay [1] (Table 20) was 84 nM; in assay [2] (Table 20, read-out: pERK (IC50, μM) Method A), 1.4 µM.
As to `Cn1cc2c(Cl)c(-c3c[nH]c4nc(N5[C@@H]6CC[C@H]5[C@H](F)[C@@H](N)C6)n(C)c(=O)c34)ccc2n1` [Example 130, 2-((1S,2R,3S,5R)-3-amino-2-fluoro-8-azabicyclo[3.2.1]octan-8-yl)-5-(4-chloro-2-methyl-2H-indazol-5-yl)-3-methyl-3,7-dihydro-4H-pyrrolo[2,3-d]pyrimidin-4-one], the IC50 stood at 63 nM in assay [1] (setting [3]) and 0.8 µM in assay [2] (setting [4]).
For `CCn1cc2c(Cl)c(-c3c[nH]c4nc(N5[C@@H]6CC[C@H]5C[C@@H](N)C6)n(C)c(=O)c34)ccc2n1` [Example 5, 2-(endo-3-amino-8-azabicyclo[3.2.1]octan-8-yl)-5-(4-chloro-2-ethyl-2H-indazol-5-yl)-3-methyl-3,7-dihydro-4H-pyrrolo[2,3-d]pyrimidin-4-one], in that order: 7.5 nM and 0.16 µM.
Regarding `Cc1nc2ccc(-c3c[nH]c4nc(N5[C@H]6CC[C@@H]5[C@H](N)C6)n(C)c(=O)c34)c(Cl)c2s1` [Example 95, 2-((1R,2R,4S)-2-amino-7-azabicyclo[2.2.1]heptan-7-yl)-5-(7-chloro-2-methylbenzo[d]thiazol-6-yl)-3-methyl-3,7-dihydro-4H-pyrrolo[2,3-d]pyrimidin-4-one], the IC50 in assay [1] (setting [3]) was determined as 2.5 nM; in assay [2] (setting [4]) it was 0.068 µM.
`Cn1nc2ccc(-c3n[nH]c4nc(N5C[C@@H]6CC[C@H]5[C@H]6N)n(C)c(=O)c34)c(Cl)c2c1Cl` (racemic) [Example 126, rac-6-((1S,4S,7S)-7-amino-2-azabicyclo[2.2.1]heptan-2-yl)-3-(3,4-dichloro-2-methyl-2H-indazol-5-yl)-5-methyl-1,5-dihydro-4H-pyrazolo[3,4-d]pyrimidin-4-one]: the 50% inhibitory concentration (IC50) is 13 nM in assay [1] (setting [3]) and 0.084 µM in assay [2] (setting [4]).
In the case of `Cn1cc2c(Cl)c(-c3n[nH]c4nc(N5C6CCCC5CNC6)n(C)c(=O)c34)ccc2n1` [Example 117, 6-(3,9-diazabicyclo[3.3.1]nonan-9-yl)-3-(4-chloro-2-methyl-2H-indazol-5-yl)-5-methyl-1,5-dihydro-4H-pyrazolo[3,4-d]pyrimidin-4-one], the IC50 came to 25 nM in assay [1] (setting [3]) and 0.64 µM in assay [2] (setting [4]).
On to `CN(C)C(=O)Cn1cc2c(Cl)c(-c3c[nH]c4nc(N5C6CCC5CNC6)n(C)c(=O)c34)ccc2n1` [Example 86, 2-(5-(2-(3,8-diazabicyclo[3.2.1]octan-8-yl)-3-methyl-4-oxo-4,7-dihydro-3H-pyrrolo[2,3-d]pyrimidin-5-yl)-4-chloro-2H-indazol-2-yl)-N,N-dimethylacetamide], for which the IC50 in assay [1] (setting [3]) came to 59 nM; in assay [2] (setting [4]), 5.2 µM.
As to `Cn1nc2ccc(-c3c[nH]c4nc(N5[C@@H]6CC[C@H]5C[C@@](C)(N)C6)n(C)c(=O)c34)c(Cl)c2c1Cl` [Example 79, 2-(endo-3-amino-3-methyl-8-azabicyclo[3.2.1]octan-8-yl)-5-(3,4-dichloro-2-methyl-2H-indazol-5-yl)-3-methyl-3,7-dihydro-4H-pyrrolo[2,3-d]pyrimidin-4-one], the figures for the IC50 in assay [1] (setting [3]) and in assay [2] (setting [4]) were 5.5 nM and 0.16 µM, respectively.
Turning to `Cn1cc2c(Cl)c(-c3c[nH]c4nc(N5[C@@H]6CCC[C@H]5C[C@H](N)C6)n(C)c(=O)c34)ccc2n1` [Example 36, 2-(exo-3-amino-9-azabicyclo[3.3.1]nonan-9-yl)-5-(4-chloro-2-methyl-2H-indazol-5-yl)-3-methyl-3,7-dihydro-4H-pyrrolo[2,3-d]pyrimidin-4-one], the IC50 in assay [1] (setting [3]) was 5.5 nM; in assay [2] (setting [4]) it was 0.35 µM.
Turning to `CCc1nc2ccc(-c3c[nH]c4nc(N5[C@@H]6CC[C@H]5C[C@@H](N)C6)n(C)c(=O)c34)c(Cl)c2o1` [Example 69, 2-(endo-3-amino-8-azabicyclo[3.2.1]octan-8-yl)-5-(7-chloro-2-ethylbenzo[d]oxazol-6-yl)-3-methyl-3,7-dihydro-4H-pyrrolo[2,3-d]pyrimidin-4-one], the IC50 is 120 nM in assay [1] (setting [3]) and 3 µM in assay [2] (setting [4]).
Take `Cn1cc2c(Cl)c(-c3c[nH]c4nc(N5C6CCC5CNC6)n(C)c(=O)c34)ccc2n1` [Example 1, 2-(3,8-diazabicyclo[3.2.1]octan-8-yl)-5-(4-chloro-2-methyl-2H-indazol-5-yl)-3-methyl-3,7-dihydro-4H-pyrrolo[2,3-d]pyrimidin-4-one]: the results for the half-inhibitory concentration (IC50) in assay [1] (setting [3]) and in assay [2] (setting [4]) were 14 nM and 0.14 µM, respectively.
For `Cn1cc2c(F)c(-c3c[nH]c4nc(N5[C@@H]6CC[C@H]5C[C@@H](N)C6)n(C)c(=O)c34)ccc2n1` [Example 70, 2-(endo-3-amino-8-azabicyclo[3.2.1]octan-8-yl)-5-(4-fluoro-2-methyl-2H-indazol-5-yl)-3-methyl-3,7-dihydro-4H-pyrrolo[2,3-d]pyrimidin-4-one], in that order: 29 nM and 0.19 µM.
Consider `Cc1cc(-c2c[nH]c3nc(N4[C@@H]5CC[C@H]4C[C@@H](N)C5)n(C)c(=O)c23)c(Cl)c2cn(C)nc12` [Example 76, 2-(endo-3-amino-8-azabicyclo[3.2.1]octan-8-yl)-5-(4-chloro-2,7-dimethyl-2H-indazol-5-yl)-3-methyl-3,7-dihydro-4H-pyrrolo[2,3-d]pyrimidin-4-one], for which the IC50 in assay [1] (setting [3]) is 31 nM; in assay [2] (setting [4]), 0.18 µM.
As for `CCn1cc2c(Cl)c(-c3n[nH]c4nc(N5C6CCCC5CNC6)n(C)c(=O)c34)ccc2n1` [Example 111, 6-(3,9-diazabicyclo[3.3.1]nonan-9-yl)-3-(4-chloro-2-ethyl-2H-indazol-5-yl)-5-methyl-1,5-dihydro-4H-pyrazolo[3,4-d]pyrimidin-4-one], the IC50 in assay [1] (setting [3]) turned out to be 26 nM; in assay [2] (setting [4]), 0.41 µM.
For `Cn1cc2c(Cl)c(-c3c[nH]c4nc(N5CC[C@H](N)C5)n(C)c(=O)c34)ccc2n1` [Example 43, (S)-2-(3-aminopyrrolidin-1-yl)-5-(4-chloro-2-methyl-2H-indazol-5-yl)-3-methyl-3,7-dihydro-4H-pyrrolo[2,3-d]pyrimidin-4-one], the IC50 is 35 nM in assay [1] (setting [3]) and 0.72 µM in assay [2] (setting [4]).
Consider `CCn1nc2ccc(-c3c[nH]c4nc(N5[C@H]6CC[C@@H]5[C@H](N)C6)n(C)c(=O)c34)c(Cl)c2c1CO` [Example 110, 2-((1R,2R,4S)-2-amino-7-azabicyclo[2.2.1]heptan-7-yl)-5-(4-chloro-2-ethyl-3-(hydroxymethyl)-2H-indazol-5-yl)-3-methyl-3,7-dihydro-4H-pyrrolo[2,3-d]pyrimidin-4-one], for which the IC50 in assay [1] (setting [3]) turned out to be 14 nM; in assay [2] (setting [4]) it was 1.7 µM.
For the compound `Cn1cc2cc(-c3c[nH]c4nc(N5[C@@H]6CC[C@H]5C[C@@H](N)C6)n(C)c(=O)c34)c(F)cc2n1` [Example 72, 2-(endo-3-amino-8-azabicyclo[3.2.1]octan-8-yl)-5-(6-fluoro-2-methyl-2H-indazol-5-yl)-3-methyl-3,7-dihydro-4H-pyrrolo[2,3-d]pyrimidin-4-one], the IC50 came out at 99 nM in assay [1] (setting [3]) and 1.9 µM in assay [2] (setting [4]).
Taken in the same sequence, the figures for `CN[C@@H]1C[C@@H]2CC[C@H]1N2c1nc2[nH]cc(-c3ccc4ncsc4c3Cl)c2c(=O)n1C` [Example 105, 5-(7-chlorobenzo[d]thiazol-6-yl)-3-methyl-2-((1R,2R,4S)-2-(methylamino)-7-azabicyclo[2.2.1]heptan-7-yl)-3,7-dihydro-4H-pyrrolo[2,3-d]pyrimidin-4-one] were 5 nM and 0.16 µM.
Taken in the same sequence, the figures for `Cn1cc2c(Cl)c(-c3c[nH]c4nc(N5CCC(N)(CO)C5)n(C)c(=O)c34)ccc2n1` (centres unmarked) [Example 58, 2-(3-amino-3-(hydroxymethyl)pyrrolidin-1-yl)-5-(4-chloro-2-methyl-2H-indazol-5-yl)-3-methyl-3,7-dihydro-4H-pyrrolo[2,3-d]pyrimidin-4-one] were 99 nM and greater than 10 µM.
Consider `CN[C@@H]1C[C@@H]2CC[C@H]1N2c1nc2[nH]nc(-c3ccc4nn(C)c(Cl)c4c3F)c2c(=O)n1C` [Example 121, 3-(3-chloro-4-fluoro-2-methyl-2H-indazol-5-yl)-5-methyl-6-((1R,2R,4S)-2-(methylamino)-7-azabicyclo[2.2.1]heptan-7-yl)-1,5-dihydro-4H-pyrazolo[3,4-d]pyrimidin-4-one], for which the IC50 stood at 16 nM in assay [1] (setting [3]) and 0.21 µM in assay [2] (setting [4]).
For the compound `Cn1c(N2C3CCCC2CNC3)nc2[nH]cc(-c3ccc4ncsc4c3Cl)c2c1=O` [Example 108, 2-(3,9-diazabicyclo[3.3.1]nonan-9-yl)-5-(7-chlorobenzo[d]thiazol-6-yl)-3-methyl-3,7-dihydro-4H-pyrrolo[2,3-d]pyrimidin-4-one], the results for the IC50 in assay [1] (setting [3]) and in assay [2] (setting [4]) were 4 nM and 0.09 µM, respectively.
In the case of `Cn1cc2c(Cl)c(-c3c[nH]c4nc(N5C[C@H]6C[C@@H]5CN6)n(C)c(=O)c34)ccc2n1` [Example 23, 2-((1R,4R)-2,5-diazabicyclo[2.2.1]heptan-2-yl)-5-(4-chloro-2-methyl-2H-indazol-5-yl)-3-methyl-3,7-dihydro-4H-pyrrolo[2,3-d]pyrimidin-4-one], the figures for the IC50 in assay [1] (setting [3]) and in assay [2] (setting [4]) were 120 nM and 4.1 µM, respectively.

By IC50 is commonly meant the concentration at which inhibition is half-maximal.

Values taken from US12037345B2, “Heterobicyclic compounds for inhibiting the activity of SHP2” (TAIHO PHARMACEUTICAL CO., LTD., priority 2018, dated 2024).
